The values below come from patent US20230399312A1, “SUBSTITUTED PYRIMIDINES AND METHODS OF USE” (THERAVANCE BIOPHARMA R&D IP, LLC, priority 2020, published 2023).

Assay [1] deals with T1, recombinant human ALK5 (TGF-βR1) protein (Homo sapiens, UniProt P36897).
T1 construct: purchased Life Technologies PR9075A
T1 sequence (P36897 34-503): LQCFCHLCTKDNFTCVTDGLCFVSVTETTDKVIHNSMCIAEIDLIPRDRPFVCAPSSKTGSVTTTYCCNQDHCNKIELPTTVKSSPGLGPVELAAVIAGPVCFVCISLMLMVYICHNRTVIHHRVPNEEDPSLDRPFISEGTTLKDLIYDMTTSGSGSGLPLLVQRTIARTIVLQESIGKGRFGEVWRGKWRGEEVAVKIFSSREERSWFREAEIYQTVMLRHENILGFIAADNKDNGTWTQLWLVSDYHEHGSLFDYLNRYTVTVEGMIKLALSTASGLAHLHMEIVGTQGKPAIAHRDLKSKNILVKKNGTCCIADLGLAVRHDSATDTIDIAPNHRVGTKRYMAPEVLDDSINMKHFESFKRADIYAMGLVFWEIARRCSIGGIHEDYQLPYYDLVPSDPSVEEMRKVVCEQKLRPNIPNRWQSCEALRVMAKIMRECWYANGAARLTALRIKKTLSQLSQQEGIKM
Briefly: Biochemical ALK5 (TGF-βR1) assay to measure pKi (LANCE Ultra ULight kinase assay). To be noted: apparent pKi, converted from pIC50 by Cheng-Prusoff. An outline of the steps: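 Dose-response series of each compound were preincubated with the kinase for 60 minutes at room temperature. Phosphorylation proceeded for 60 minutes at 37 °C after ATP addition, was quenched with EDTA, and was detected with a europium anti-phospho-Thr1342 antibody by TR-FRET; pKi was calculated from pIC50.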
Background: In TR-FRET formats the signal depends on donor and acceptor labels being close together.

The subject of assay [2] is TGF-β-stimulated SMAD3 phosphorylation in BEAS-2B cells. Briefly: Cellular ALK5 potency assay, inhibition of TGF-β stimulated pSMAD3 formation in BEAS-2B cells. The format is cell-based. Conditions: Homo sapiens, pSMAD3, TGF-β 10 ng/mL, read-out: BEAS2B pIC50 (converted). A digest of the protocol: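 Human lung epithelial BEAS-2B cells were preincubated 1 h at 37 °C with compound in HBSS/HEPES/1% BSA, then stimulated 30 min with 10 ng/mL TGF-β. pSMAD3 in lysates was quantified by AlphaLISA relative to untreated stimulated cells; reported as pIC50.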

Take `Cc1cccc(-c2nccc(Nc3ccnc(Nc4ccc(N5CCC(C(=O)O)CC5)cc4)n3)n2)n1` [Compound 71, 1-[4-[[4-[[2-(6-methyl-2-pyridyl)pyrimidin-4-yl]amino]pyrimidin-2-yl]amino]phenyl]piperidine-4-carboxylic acid]: in assay [1], the Ki is 0.0398 to 0.316 nM. In assay [2], the IC50 is 25.1 to 158 nM.
For `Cc1cccc(-c2nccc(Nc3ccnc(Nc4ccc(C(=O)N5CCNCC5)cc4)n3)n2)n1` [Compound 290, [4-[[4-[[2-(6-methyl-2-pyridyl)pyrimidin-4-yl]amino]pyrimidin-2-yl]amino]phenyl]-piperazin-1-yl-methanone], in that order: 0.0398 to 0.316 nM and 25.1 to 158 nM.
For `Cc1cccc(-c2nccc(Nc3ccnc(Nc4csc(C(=O)OCCN5CCN6CCCC6C5)c4)n3)n2)n1` (stereo not shown) [Compound 599, 2-(3,4,6,7,8,8a-hexahydro-1H-pyrrolo[1,2-a]pyrazin-2-yl)ethyl 4-[[4-[[2-(6-methyl-2-pyridyl)pyrimidin-4-yl]amino]pyrimidin-2-yl]amino]thiophene-2-carboxylate], in that order: 0.0398 to 0.316 nM and 25.1 to 158 nM.
For `CCOC(=O)Cn1cc(-c2ccc(Nc3nccc(Nc4ccnc(-c5cccc(C)n5)n4)n3)cc2)cn1` [Compound 47, ethyl 2-[4-[4-[[4-[[2-(6-methyl-2-pyridyl)pyrimidin-4-yl]amino]pyrimidin-2-yl]amino]phenyl]pyrazol-1-yl]acetate], in that order: 0.398 to 3.16 nM and 25.1 to 158 nM.
As for `Cc1cccc(-c2nccc(Nc3ccnc(Nc4ccc(CN5CCNC(C(=O)OCC(C)C)C5)cc4)n3)n2)n1` (stereo not shown) [Compound 523, isobutyl 4-[[4-[[4-[[2-(6-methyl-2-pyridyl)pyrimidin-4-yl]amino]pyrimidin-2-yl]amino]phenyl]methyl] piperazine-2-carboxylate], the Ki in assay [1] was 0.0398 to 0.316 nM. Besides, the IC50 in assay [2] is no more than 20 nM.
On to `Cc1cccc(-c2nccc(Nc3ccnc(Nc4ncc(C(=O)OC[C@@H]5CCNC5)s4)n3)n2)n1` [Compound 630, [(3R)-pyrrolidin-3-yl]methyl 2-[[4-[[2-(6-methyl-2-pyridyl)pyrimidin-4-yl]amino]pyrimidin-2-yl]amino]thiazole-5-carboxylate], for which the Ki in assay [1] was 3.98 to 31.6 nM. The IC50 in assay [2] was 200 to 1260 nM.
In the same order, the values of `Cc1cccc(-c2nccc(Nc3ccnc(Nc4ncc(C(=O)OC[C@H]5CCCCN5)s4)n3)n2)n1` [Compound 578, [(2R)-2-piperidyl]methyl 2-[[4-[[2-(6-methyl-2-pyridyl)pyrimidin-4-yl]amino]pyrimidin-2-yl]amino]thiazole-5-carboxylate] are 3.98 to 31.6 nM and 200 to 1260 nM.
In the same order, the values of `CC[C@@H](C)OC(=O)CC1CNCCN1c1ccc(Nc2nccc(Nc3ccnc(-c4cccc(C)n4)n3)n2)cc1` (stereo partly drawn) [Compound 9, [(1R)-1-methylpropyl] 2-[1-[4-[[4-[[2-(6-methyl-2-pyridyl)pyrimidin-4-yl]amino]pyrimidin-2-yl]amino]phenyl]piperazin-2-yl]acetate] are 0.0398 to 0.316 nM and 25.1 to 158 nM.
Turning to `Cc1cccc(-c2nccc(Nc3ccnc(Nc4ccc(C(=O)OC[C@H]5CCCNC5)nc4)n3)n2)n1` [Compound 620, [(3S)-3-piperidyl]methyl 5-[[4-[[2-(6-methyl-2-pyridyl)pyrimidin-4-yl]amino]pyrimidin-2-yl]amino]pyridine-2-carboxylate], the Ki in assay [1] is 0.0398 to 0.316 nM. In assay [2], the IC50 is 25.1 to 158 nM.
`Cc1cccc(-c2nccc(Nc3ccnc(Nc4cccc(NC(=O)NCC5CNC5)c4)n3)n2)n1` [Compound 477, 1-(azetidin-3-ylmethyl)-3-[3-[[4-[[2-(6-methyl-2-pyridyl)pyrimidin-4-yl]amino]pyrimidin-2-yl]amino]phenyl]urea]: in assay [1], the Ki was 0.0398 to 0.316 nM. For the same compound, in assay [2], the IC50 is no more than 20 nM.
Consider `Cc1cccc(-c2nccc(Nc3ccnc(Nc4cccc(NC(=O)C5CCN(CCN(C)C)CC5)c4)n3)n2)n1` [Compound 134, 1-[2-(dimethylamino)ethyl]-N-[3-[[4-[[2-(6-methyl-2-pyridyl)pyrimidin-4-yl]amino]pyrimidin-2-yl]amino]phenyl]piperidine-4-carboxamide], for which the Ki in assay [1] is 0.0398 to 0.316 nM. Moreover, the IC50 in assay [2] is 25.1 to 158 nM.
In the same order, the values of `Cc1cccc(-c2nccc(Nc3ccnc(Nc4ccc(NS(=O)(=O)c5ccc(C(N)=O)cc5)cc4)n3)n2)n1` [Compound 162, 4-[[4-[[4-[[2-(6-methyl-2-pyridyl)pyrimidin-4-yl]amino]pyrimidin-2-yl]amino]phenyl]sulfamoyl] benzamide] are 0.398 to 3.16 nM and 200 to 1260 nM.
As for `Cc1cccc(-c2nccc(Nc3ccnc(Nc4ccc(NC(=O)C5CCN(CCN(C)C)CC5)cc4)n3)n2)n1` [Compound 269, 1-[2-(dimethylamino)ethyl]-N-[4-[[4-[[2-(6-methyl-2-pyridyl)pyrimidin-4-yl]amino]pyrimidin-2-yl]amino]phenyl]piperidine-4-carboxamide], the Ki in assay [1] was 0.0398 to 0.316 nM. The IC50 in assay [2] is 200 to 1260 nM.
For `Cc1cccc(-c2nccc(Nc3ccnc(Nc4ccc(-c5cn[nH]c5)cc4)n3)n2)n1` [Compound 535, N4-[2-(6-methyl-2-pyridyl)pyrimidin-4-yl]-N2-[4-(1H-pyrazol-4-yl)phenyl]pyrimidine-2,4-diamine], in that order: 3.98 to 31.6 nM and no more than 20 nM.
In the case of `Cc1cccc(-c2nccc(Nc3ccnc(Nc4ccc(N5CCNCC5)c(F)c4)n3)n2)n1` [Compound 120, N2-(3-fluoro-4-piperazin-1-yl-phenyl)-N4-[2-(6-methyl-2-pyridyl)pyrimidin-4-yl]pyrimidine-2,4-diamine], the Ki in assay [1] was 0.0398 to 0.316 nM. For the same compound, in assay [2], the IC50 is 25.1 to 158 nM.
For `Cc1cccc(-c2nccc(Nc3ccnc(Nc4ccc(CN5CCC[C@H](C(=O)O[C@H]6CCN(C)C6)C5)cc4)n3)n2)n1` [Compound 210, [(3S)-1-methylpyrrolidin-3-yl] (3S)-1-[[4-[[4-[[2-(6-methyl-2-pyridyl)pyrimidin-4-yl]amino]pyrimidin-2-yl]amino]phenyl]methyl] piperidine-3-carboxylate], in that order: 0.0398 to 0.316 nM and no more than 20 nM.
Consider `Cc1cccc(-c2nccc(Nc3ccnc(Nc4ccc(C)c(CN5CCNCC5)c4)n3)n2)n1` [Compound 247, N2-[4-methyl-3-(piperazin-1-ylmethyl)phenyl]-N4-[2-(6-methyl-2-pyridyl)pyrimidin-4-yl]pyrimidine-2,4-diamine], for which the Ki in assay [1] was 0.0398 to 0.316 nM. Also, the IC50 in assay [2] is 25.1 to 158 nM.
For the compound `Cc1cccc(-c2nccc(Nc3ccnc(Nc4ccc(CN5CCCC(C(=O)O)C5)cc4)n3)n2)n1` (stereo not shown) [Compound 444, 1-[[4-[[4-[[2-(6-methyl-2-pyridyl)pyrimidin-4-yl]amino]pyrimidin-2-yl]amino]phenyl]methyl] piperidine-3-carboxylic acid], in assay [1], the Ki was 0.0398 to 0.316 nM. For the same compound, the IC50 in assay [2] was 25.1 to 158 nM.
For `Cc1cccc(-c2nccc(Nc3ccnc(Nc4ccc(N5CCC(C(=O)OC6CCN(C)C6)CC5)cc4)n3)n2)n1` (stereo not shown) [Compound 472, (1-methylpyrrolidin-3-yl) 1-[4-[[4-[[2-(6-methyl-2-pyridyl)pyrimidin-4-yl]amino]pyrimidin-2-yl]amino]phenyl]piperidine-4-carboxylate], in that order: 0.0398 to 0.316 nM and 25.1 to 158 nM.
For `Cc1cccc(-c2nccc(Nc3ccnc(Nc4ccc(NC(=O)N5C[C@@H](C)N[C@@H](C)C5)cc4)n3)n2)n1` [Compound 435, rac-(3S,5R)-3,5-dimethyl-N-[4-[[4-[[2-(6-methyl-2-pyridyl)pyrimidin-4-yl]amino]pyrimidin-2-yl]amino]phenyl]piperazine-1-carboxamide], in that order: 0.0398 to 0.316 nM and 25.1 to 158 nM.
Regarding `CNC1CCN(c2ccc(Nc3nccc(Nc4ccnc(-c5cc(O)ccc5C)n4)n3)cc2)CC1` [Compound 379, 4-methyl-3-[4-[[2-[4-[4-(methylamino)-1-piperidyl]anilino]pyrimidin-4-yl]amino]pyrimidin-2-yl]phenol], the Ki in assay [1] was 0.398 to 3.16 nM. For the same compound, the IC50 in assay [2] is 200 to 1260 nM.
In the same order, the values of `Cc1cccc(-c2nccc(Nc3ccnc(Nc4nc(C(=O)OCC5CCNCC5)cs4)n3)n2)n1` [Compound 615, 4-piperidylmethyl 2-[[4-[[2-(6-methyl-2-pyridyl)pyrimidin-4-yl]amino]pyrimidin-2-yl]amino]thiazole-4-carboxylate] are 0.398 to 3.16 nM and 200 to 1260 nM.
For `Cc1cccc(-c2nccc(Nc3ccnc(Nc4ccc(N5CCN(C6CC6)CC5)cc4)n3)n2)n1` [Compound 457, N2-[4-(4-cyclopropylpiperazin-1-yl)phenyl]-N4-[2-(6-methyl-2-pyridyl)pyrimidin-4-yl]pyrimidine-2,4-diamine], in that order: 0.0398 to 0.316 nM and 25.1 to 158 nM.
